Assays:
Assay in all cases: relative viability (nuclei count vs DMSO), 5 days (fraction); higher = more cells survive
Dinaciclib + AZD7762 = compound: CCc1cnn2c(NCc3ccc[n+]([O-])c3)cc(N3CCCC[C@H]3CCO)nc12 [Dinaciclib] + NC(=O)Nc1cc(-c2cccc(F)c2)sc1C(=O)N[C@H]1CCCNC1 [AZD7762] (partner 0.2 µM)
How it was run: (§1)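 Lung cancer cell lines in 1536-well plates were dosed by pin tool the day after seeding, either with one drug alone or with a fixed anchor-drug dose plus five library-drug doses (not always all listed) in √10 steps. After 5 days, cells were fixed and their nuclei stained in one step (final 0.05% Triton X-100, 1% formaldehyde, 1 ug/ml Hoechst), then counted on 4× images. Relative viability is the nuclei count in treated wells divided by that in vehicle wells. Values are medians of duplicate plates.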

Dinaciclib + Trametinib = compound: CCc1cnn2c(NCc3ccc[n+]([O-])c3)cc(N3CCCC[C@H]3CCO)nc12 [Dinaciclib] + CC(=O)Nc1cccc(-n2c(=O)n(C3CC3)c(=O)c3c(Nc4ccc(I)cc4F)n(C)c(=O)c(C)c32)c1 [Trametinib] (partner 0.02 µM)
How it was run: as §1

Dinaciclib + Luminespib = compound: CCc1cnn2c(NCc3ccc[n+]([O-])c3)cc(N3CCCC[C@H]3CCO)nc12 [Dinaciclib] + CCNC(=O)c1noc(-c2cc(C(C)C)c(O)cc2O)c1-c1ccc(CN2CCOCC2)cc1 [Luminespib] (partner 0.01 µM)
How it was run: as §1

Dinaciclib + Navitoclax = compound: CCc1cnn2c(NCc3ccc[n+]([O-])c3)cc(N3CCCC[C@H]3CCO)nc12 [Dinaciclib] + CC1(C)CCC(c2ccc(Cl)cc2)=C(CN2CCN(c3ccc(C(=O)NS(=O)(=O)c4ccc(N[C@H](CCN5CCOCC5)CSc5ccccc5)c(S(=O)(=O)C(F)(F)F)c4)cc3)CC2)C1 [Navitoclax] (partner 0.5 µM)
How it was run: as §1

Dinaciclib + Decitabine = compound: CCc1cnn2c(NCc3ccc[n+]([O-])c3)cc(N3CCCC[C@H]3CCO)nc12 [Dinaciclib] + Nc1ncn([C@H]2C[C@H](O)[C@@H](CO)O2)c(=O)n1 [Decitabine] (partner 2 µM)
How it was run: as §1

| Cell Line | relative viability (Dinaciclib + AZD7762; first compound 0.009487 µM) | relative viability (Dinaciclib + AZD7762; first compound 0.03 µM) | relative viability (Dinaciclib + AZD7762; first compound 0.09487 µM) | relative viability (Dinaciclib + AZD7762; first compound 0.3 µM) | relative viability (Dinaciclib + Trametinib; first compound 0.009487 µM) | relative viability (Dinaciclib + Trametinib; first compound 0.03 µM) | relative viability (Dinaciclib + Trametinib; first compound 0.09487 µM) | relative viability (Dinaciclib + Trametinib; first compound 0.3 µM) | relative viability (Dinaciclib + Luminespib; first compound 0.009487 µM) | relative viability (Dinaciclib + Luminespib; first compound 0.03 µM) | relative viability (Dinaciclib + Luminespib; first compound 0.09487 µM) | relative viability (Dinaciclib + Luminespib; first compound 0.3 µM) | relative viability (Dinaciclib + Navitoclax; first compound 0.009487 µM) | relative viability (Dinaciclib + Navitoclax; first compound 0.03 µM) | relative viability (Dinaciclib + Navitoclax; first compound 0.09487 µM) | relative viability (Dinaciclib + Navitoclax; first compound 0.3 µM) | relative viability (Dinaciclib + Decitabine; first compound 0.009487 µM) | relative viability (Dinaciclib + Decitabine; first compound 0.03 µM) | relative viability (Dinaciclib + Decitabine; first compound 0.09487 µM) | relative viability (Dinaciclib + Decitabine; first compound 0.3 µM) |
| --- | --- | --- | --- | --- | --- | --- | --- | --- | --- | --- | --- | --- | --- | --- | --- | --- | --- | --- | --- | --- |
| NCI-H1944 | 0.745 | 0.0989 | 0.128 | 0.135 | 0.462 | 0.161 | 0.152 | 0.144 | 0.799 | 0.142 | 0.137 | 0.137 | 1.19 | 0.67 | 0.177 | 0.169 | 0.44 | 0.199 | 0.137 | 0.156 |
| NCI-H1975 | 0.957 | 0.421 | 0.22 | 0.215 | 0.343 | 0.187 | 0.134 | 0.0985 | 0.237 | 0.145 | 0.12 | 0.135 | 1.08 | 0.143 | 0.137 | 0.128 | 0.327 | 0.176 | 0.135 | 0.143 |
| NCI-H1993 | 0.668 | 0.364 | 0.385 | 0.396 | 0.632 | 0.419 | 0.511 | 0.479 | 0.723 | 0.472 | 0.53 | 0.474 | 0.799 | 0.499 | – | 0.562 | 0.702 | 0.462 | 0.445 | 0.406 |
| NCI-H2085 | 1.14 | 0.391 | 0.211 | 0.221 | 0.439 | 0.259 | 0.187 | 0.183 | 0.417 | 0.195 | 0.186 | 0.169 | 1.14 | 0.201 | 0.154 | 0.172 | 0.589 | 0.404 | 0.217 | 0.236 |
| NCI-H2087 | 1.44 | 0.108 | 0.127 | 0.123 | 0.143 | 0.11 | 0.101 | 0.107 | 0.189 | 0.107 | 0.0516 | 0.0567 | 0.729 | 0.0652 | 0.0695 | 0.0583 | 0.189 | 0.0863 | 0.0711 | 0.0804 |
| NCI-H2126 | 1.13 | 0.899 | 0.29 | 0.198 | 0.53 | 0.41 | 0.165 | 0.175 | 0.873 | 0.202 | 0.201 | 0.21 | 0.868 | 0.607 | 0.221 | 0.197 | 0.524 | 0.393 | 0.187 | 0.176 |
| NCI-H2170 | 0.705 | 0.122 | 0.108 | 0.128 | 0.885 | 0.147 | 0.133 | 0.131 | 0.608 | 0.142 | 0.142 | 0.146 | 0.477 | 0.155 | 0.139 | 0.19 | 0.471 | 0.212 | 0.141 | 0.146 |
| NCI-H2347 | 0.78 | 0.226 | 0.2 | 0.185 | 0.301 | 0.247 | 0.159 | 0.154 | 0.249 | 0.12 | 0.105 | 0.118 | 0.779 | 0.167 | 0.143 | 0.143 | 0.673 | 0.383 | 0.212 | 0.232 |

From the supplement of paper PMC10307832
